Experimental data as given in ChEMBL document CHEMBL4043145, “Pyridine-pyrimidine amides that prevent HGF-induced epithelial scattering by two distinct mechanisms” (Bioorg Med Chem Lett, 2017).

Experiments:
[1] = system: HCT-116; experiment: Antiproliferative activity against human HCT116 cells; type: functional
[2] = system: ACHN; experiment: Antiproliferative activity against human ACHN cells; type: functional
[3] = system: DU-145; experiment: Antiproliferative activity against human DU145 cells; type: functional
[4] = system: MFE-280; experiment: Antiproliferative activity against human MFE280 cells; type: functional
[5] = system: K562; experiment: Antiproliferative activity against human K562 cells; type: functional
[6] = system: M14; experiment: Antiproliferative activity against human M14 cells; type: functional
[7] = system: MDCK-II; experiment: Antimigratory activity against MDCK2 cells assessed as inhibition of HGF-induced cell scattering at 1 uM pretreated for 18 hrs followed by HGF addition measured after 20 to 24 hrs by crystal violet staining-based assay relative to control; type: functional; details: Canis lupus familiaris
[8] = system: U-87 MG; experiment: Antiproliferative activity against human U87MG cells; type: functional, U-87MG ATCC
[9] = system: MOLT-4; experiment: Antiproliferative activity against human MOLT4 cells; type: functional
[10] = system: NCI-H226; experiment: Antiproliferative activity against human NCI-H226 cells; type: functional
[11] = system: A549; experiment: Antiproliferative activity against human A549/ATCC cells; type: functional
[12] = system: CCRF-CEM; experiment: Antiproliferative activity against human CCRF-CEM cells; type: functional
[13] = Antiproliferative activity against human HER218 cells; type: functional
[14] = system: CAKI-1; experiment: Antiproliferative activity against human Caki1 cells; type: functional
[15] = system: SW480; experiment: Antiproliferative activity against human SW480 cells; type: functional
[16] = system: MCF7; experiment: Antiproliferative activity against human MCF7 cells at 10 uM relative to control; type: functional, cell-based
[17] = system: HOP-62; experiment: Antiproliferative activity against human HOP62cells; type: functional
[18] = system: HPAC; experiment: Antiproliferative activity against HPAC; type: functional; details: Homo sapiens
[19] = system: VCaP; experiment: Antiproliferative activity against human VCaP cells; type: functional
[20] = system: OVCAR-4; experiment: Antiproliferative activity against human OVCAR4 cells; type: functional
[21] = system: UO-31; experiment: Antiproliferative activity against human UO31 cells; type: functional
[22] = system: RPMI-8226; experiment: Antiproliferative activity against human RPMI8226 cells; type: functional
[23] = system: NCI-H460; experiment: Antiproliferative activity against human NCI-H460 cells; type: functional
[24] = system: HEC-1-A; experiment: Antiproliferative activity against human Hec1A cells; type: functional
[25] = system: RXF 393; experiment: Antiproliferative activity against human RXF393 cells; type: functional
[26] = system: HL-60(TB); experiment: Antiproliferative activity against human HL-60(TB) cells; type: functional
[27] = system: A549; experiment: Antiproliferative activity against human A549 cells; type: functional
[28] = system: T98G; experiment: Antiproliferative activity against human T98G cells; type: functional
[29] = Antiproliferative activity against human NCI-H660 cells; type: functional
[30] = system: NCI-H1975; experiment: Antiproliferative activity against human NCI-H1975 cells; type: functional
[31] = system: HOP-92; experiment: Antiproliferative activity against human HOP92 cells; type: functional
[32] = system: MDA-MB-435; experiment: Antiproliferative activity against human MDA-MB-435 cells; type: functional
[33] = system: RL95-2; experiment: Antiproliferative activity against human RL95-2 cells; type: functional
[34] = system: MFE-296; experiment: Antiproliferative activity against human MFE296 cells; type: functional
[35] = system: SK-MEL-2; experiment: Antiproliferative activity against human SK-MEL-2 cells; type: functional
[36] = system: HCC 2998; experiment: Antiproliferative activity against human HCC2998 cells; type: functional
[37] = system: HCT-15; experiment: Antiproliferative activity against human HCT15 cells; type: functional
[38] = system: SK-MEL-5; experiment: Antiproliferative activity against human SK-MEL-5 cells; type: functional
[39] = system: NCI/ADR-RES; experiment: Antiproliferative activity against human NCI/ADR-RES cells; type: functional
[40] = system: UACC-62; experiment: Antiproliferative activity against human UACC62 cells; type: functional
[41] = system: HT-29; experiment: Antiproliferative activity against human HT-29 cells; type: functional
[42] = system: SR; experiment: Antiproliferative activity against human SR cells; type: functional
[43] = system: SW-620; experiment: Antiproliferative activity against human SW620 cells; type: functional
[44] = system: U-251; experiment: Antiproliferative activity against human U251 cells; type: functional
[45] = system: 786-0; experiment: Antiproliferative activity against human 786-0 cells; type: functional
[46] = system: MIA PaCa-2; experiment: Antiproliferative activity against human MIAPaCa2 cells; type: functional
[47] = system: CWR22R; experiment: Antiproliferative activity against human 22Rv1 cells; type: functional
[48] = system: HepG2; experiment: Antiproliferative activity against human HepG2 cells; type: functional
[49] = system: AN3-CA; experiment: Antiproliferative activity against human AN3CA cells; type: functional
[50] = system: COLO 205; experiment: Antiproliferative activity against human COLO205 cells; type: functional
[51] = system: PANC-1; experiment: Antiproliferative activity against human PANC1 cells; type: functional
[52] = system: TK-10; experiment: Antiproliferative activity against human TK10 cells; type: functional
[53] = system: NCI-H322M; experiment: Antiproliferative activity against human NCI-H322M cells; type: functional
[54] = system: MCF7; experiment: Antiproliferative activity against human MCF7 cells; type: functional
[55] = system: MDA-MB-468; experiment: Antiproliferative activity against human MDA-MB-468 cells; type: functional
[56] = system: NCI-H522; experiment: Antiproliferative activity against human NCI-H522 cells; type: functional
[57] = system: A2780; experiment: Antiproliferative activity against human A2780 cells; type: functional, cell-based
[58] = system: LNCaP; experiment: Antiproliferative activity against human LNCAP cells; type: functional
[59] = system: T47D; experiment: Antiproliferative activity against human T47D cells; type: functional
[60] = system: SF-268; experiment: Antiproliferative activity against human SF268 cells; type: functional
[61] = system: Hs-578T; experiment: Antiproliferative activity against human Hs 578T cells; type: functional
[62] = system: SN12C; experiment: Antiproliferative activity against human SN12C cells; type: functional
[63] = system: IGROV-1; experiment: Antiproliferative activity against human IGROV1 cells; type: functional
[64] = system: OVCAR-5; experiment: Antiproliferative activity against human OVCAR5 cells; type: functional
[65] = system: OVCAR-8; experiment: Antiproliferative activity against human OVCAR8 cells; type: functional
[66] = system: PC-3; experiment: Antiproliferative activity against human PC3 cells; type: functional
[67] = system: OVCAR-3; experiment: Antiproliferative activity against human OVCAR3 cells; type: functional
[68] = system: MDA-MB-231; experiment: Antiproliferative activity against human MDA-MB-231/ATCC cells; type: functional
[69] = system: SF-539; experiment: Antiproliferative activity against human SF539 cells; type: functional
[70] = system: BT-20; experiment: Antiproliferative activity against human BT20 cells; type: functional
[71] = system: SK-OV-3; experiment: Antiproliferative activity against human SKOV3 cells; type: functional
[72] = system: KM12; experiment: Antiproliferative activity against human KM12 cells; type: functional
[73] = system: LOX IMVI; experiment: Antiproliferative activity against human LOXIMVI cells; type: functional
[74] = system: Malme-3M; experiment: Antiproliferative activity against human MALME-3M cells; type: functional
[75] = system: SK-UT-1; experiment: Antiproliferative activity against human SK-UT-1 cells; type: functional
[76] = system: SF-295; experiment: Antiproliferative activity against human SF295 cells; type: functional
[77] = system: NCI-H23; experiment: Antiproliferative activity against human NCI-H23 cells; type: functional
[78] = system: SNB-19; experiment: Antiproliferative activity against human SNB19 cells; type: functional
[79] = system: A498; experiment: Antiproliferative activity against human A498 cells; type: functional

For `O=C(Nc1ccc(-c2ccccc2)cn1)c1cncnc1`, the GI50 [1] was 40 nM, the GI50 [2] was 271 nM and the GI50 [3] was 305 nM. For the same molecule, the GI50 [4] was over 10000 nM, the GI50 [5] was 46 nM and the GI50 [6] was 44 nM. The inhibition at 1 µM [7] was 238%, the GI50 [8] was 260 nM and the GI50 [9] was 297 nM. The GI50 [10] was 613 nM, the GI50 [11] was 61 nM and the GI50 [12] was 199 nM. The GI50 [13] was 72 nM, the GI50 [14] was 91 nM and the GI50 [15] was 46 nM. It also gave an EC50 [16] of 74 nM, a GI50 [17] of over 10000 nM and a GI50 [18] of 154 nM. The GI50 [19] was 246 nM, the GI50 [20] was over 10000 nM and the GI50 [21] was 2110 nM. For the same molecule, the GI50 [22] was 91 nM, the GI50 [23] was 41 nM and the GI50 [24] was 178 nM. It also gave a GI50 [25] of 124 nM, a GI50 [26] of 53 nM and a GI50 [27] of 204 nM. For the same molecule, the GI50 [28] was 153 nM, the GI50 [29] was 135 nM and the GI50 [30] was 271 nM. The GI50 [31] was 96 nM, the GI50 [32] was 22 nM and the GI50 [33] was 86 nM. It also gave a GI50 [34] of 26 nM, a GI50 [35] of 53 nM and a GI50 [36] of 1010 nM. It also gave a GI50 [37] of 45 nM, a GI50 [38] of 43 nM and a GI50 [39] of 40 nM. For the same molecule, the GI50 [40] was 69 nM, the GI50 [41] was 38 nM and the GI50 [42] was 42 nM. It also gave a GI50 [43] of 43 nM, a GI50 [44] of 113 nM and a GI50 [45] of 591 nM. It also gave a GI50 [46] of 194 nM, a GI50 [47] of 150 nM and a GI50 [48] of 94 nM. For the same molecule, the GI50 [49] was 53 nM, the GI50 [50] was 47 nM and the GI50 [51] was 212 nM. For the same molecule, the GI50 [52] was 317 nM, the GI50 [53] was 512 nM and the GI50 [54] was 37 nM. It also gave a GI50 [55] of 29 nM, a GI50 [56] of 34 nM and an EC50 [57] of 74 nM. It also gave a GI50 [57] of 40 nM, a GI50 [58] of 361 nM and a GI50 [59] of over 10000 nM. For the same molecule, the GI50 [60] was 1020 nM, the GI50 [61] was 160 nM and the GI50 [62] was 155 nM. For the same molecule, the GI50 [63] was 869 nM, the GI50 [64] was 605 nM and the GI50 [65] was 240 nM. The GI50 [66] was 118 nM, the GI50 [67] was 47 nM and the GI50 [68] was 256 nM. For the same molecule, the GI50 [69] was 110 nM, the GI50 [70] was 342 nM and the GI50 [71] was 315 nM. It also gave a GI50 [72] of 39 nM, a GI50 [73] of 121 nM and a GI50 [74] of 77 nM. It also gave a GI50 [75] of 55 nM, a GI50 [76] of 86 nM and a GI50 [77] of 660 nM. It also gave a GI50 [78] of 370 nM and a GI50 [79] of 48 nM.
